The values that follow come from US20210395210A1, “INHIBITION OF BACTERIAL CHAPERONIN SYSTEMS” (THE TRUSTEES OF INDIANA UNIVERSITY, priority 2018, published 2021).

Where two headings read alike, the source gives them in different places.

One data set can be described thus: in vitro. Conditions: human. The procedure:
HEK 293 cells were maintained in MEM medium (Corning Cellgro, 10-009 CV) supplemented with 10% FBS (Sigma, F2242). […] Cells at 80% confluence were harvested and diluted in growth medium, then 45 μL of the THLE-3 cells (1,500 cells/well) or HEK 293 cells (1,500 cells/well) were dispensed per well, and plates were sealed with “Breathe Easy” oxygen permeable membranes (Diversified Biotech) and incubated at 37° C., 5% CO2, for 24 h.

The next data set has as its target T1, native MDH (Sus scrofa, UniProt P00346).
T1 construct: soluble pig heart MDH from Roche, product #10127248001; purchased Roche 10127248001; host or cells: pig heart
T1 sequence (P00346 25-338): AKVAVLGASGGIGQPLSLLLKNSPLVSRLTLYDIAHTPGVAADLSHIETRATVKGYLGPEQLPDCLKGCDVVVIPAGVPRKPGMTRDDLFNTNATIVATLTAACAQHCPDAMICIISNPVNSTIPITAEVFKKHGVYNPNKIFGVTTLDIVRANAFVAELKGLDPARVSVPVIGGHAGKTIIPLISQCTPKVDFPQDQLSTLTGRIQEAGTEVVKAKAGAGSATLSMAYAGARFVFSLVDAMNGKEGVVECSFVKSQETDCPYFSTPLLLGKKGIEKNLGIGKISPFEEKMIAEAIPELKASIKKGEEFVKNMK
In words: Counter-screen for inhibition of native MDH enzymatic activity. Format: biochemical, pig. An outline of the steps:
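Compounds were added only after GroEL/ES-mediated MDH refolding (45 min, 37 °C) had been EDTA-quenched, so only refolded MDH activity is probed.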
On the technique in general: Counterscreens check selectivity or assay interference.

A further data set concerns the target T2, E. coli GroEL/ES (Escherichia coli, UniProt P0A6F5).
T2 construct: made in house; host or cells: GroEL in E. coli DH5α; GroES in E. coli BL21 (DE3)
In words: GroEL/ES-mediated dMDH refolding assay. Format: biochemical. Conditions: for inhibition in the GroEL/ES-mediated refolding assays (in words): dMDH and dRho refolding assays. The procedure:
Reagent preparation: For these assays, four primary reagent stocks were prepared: 1) GroEUES-dMDH or HSP60/10-dMDH binary complex stock; 2) ATP initiation stock; 3) EDTA quench stock; 4) MDH enzymatic assay stock. Denatured MDH (dMDH) was prepared by 2-fold dilution of MDH (5 mg/ml, soluble pig heart MDH from Roche, product #10127248001) with denaturant buffer (7 M guanidine-HCl, 200 mM Tris, pH 7.4, and 50 mM DTT). MDH was completely denatured by incubating at room temperature for 45 min. The binary complex solutions were prepared by slowly adding the dMDH stock to a stirring stock with GroEL (or HSP60) in folding buffer (50 mM Tris-HCl, pH 7.4, 50 mM KCl, 10 mM MgCl2, and 1 mM DTT), followed by addition of GroES (or HSP10). The binary complex stocks were prepared immediately prior to dispensing into the assay plates and had final protein concentrations of 83.3 nM GroEL (Mr 800 kDa) or HSP60 (Mr 400 kDa), 100 nM GroES or HSP10 (Mr 70 kDa), and 20 nM dMDH in folding buffer. For the ATP initiation stock, ATP solid was diluted into folding buffer to a final concentration of 2.5 mM. Quench solution contained 600 mM EDTA (pH 8.0). The MDH enzymatic assay stock consisted of 20 mM sodium mesoxalate and 2.4 mM NADH in reaction buffer (50 mM Tris-HCl, pH 7.4, 50 mM KCl, and 1 mM DTT).
Assay Protocol: First, 30 μL aliquots of the GroEL/ES-dMDH or HSP60/10-dMDH binary complex stocks were dispensed into clear, 384-well polystyrene plates. […] The chaperonin-mediated refolding cycles were initiated by addition of 20 μL of ATP stock (reagent concentrations during refolding cycle: 50 nM GroEL or HSP60, 60 nM GroES or HSP10, 12 nM dMDH, 1 mM ATP, and compounds of 100 μM to 46 nM, 3-fold dilution series). The refolding reactions were incubated at 37° C. […] Next, the assay was quenched by addition of 10 μL of the EDTA to final concentration of 100 mM. […] A340 nm measurements were recorded at 0.5 minutes (start point) and at successive time points until the amount of NADH consumed reached ˜90% (end point, generally between 20-35 minutes). The differences between the start and end point A340 values were used to calculate the % inhibition of the GroEL/ES or HSP60/10 machinery by the compounds. […] Results presented represent the averages of IC50 values obtained from at least quadriplicate (duplicate of duplicate) replicates.
After generating the compound library, we next employed a series of well-established biochemical assays to evaluate compound inhibitory effects against the GroEUES chaperonin system (See FIG. 6 and FIG. 7). We used E. coli GroEUES as the surrogate chaperonin system for refolding of the reporter enzymes malate dehydrogenase (MDH) and rhodanese (Rho). Briefly, binary complexes are formed between GroEL and denatured MDH or Rho, which are then refolded to their native states upon addition of ATP and the GroES co-chaperonin. Enzymatic activities of refolded native MDH or Rho act as coupled reporters of GroEUES refolding functions since in the presence of chaperonin inhibitors, no functional reporter enzymes are generated.

[1] abbreviates: log of IC50 (μM scale), with standard deviation, read-out: log(IC50) Native MDH Reporter (converted).
Where [2] appears, read: read-out: Biochemical Assay IC50 Native MDH Reporter.
Setting [3] is: log of IC50 (μM scale), with standard deviation.
Where [4] appears, read: read-out: Biochemical Assay IC50 GroEL/ES-dMDH refolding.

T2 sequence (P0A6F5 2-548): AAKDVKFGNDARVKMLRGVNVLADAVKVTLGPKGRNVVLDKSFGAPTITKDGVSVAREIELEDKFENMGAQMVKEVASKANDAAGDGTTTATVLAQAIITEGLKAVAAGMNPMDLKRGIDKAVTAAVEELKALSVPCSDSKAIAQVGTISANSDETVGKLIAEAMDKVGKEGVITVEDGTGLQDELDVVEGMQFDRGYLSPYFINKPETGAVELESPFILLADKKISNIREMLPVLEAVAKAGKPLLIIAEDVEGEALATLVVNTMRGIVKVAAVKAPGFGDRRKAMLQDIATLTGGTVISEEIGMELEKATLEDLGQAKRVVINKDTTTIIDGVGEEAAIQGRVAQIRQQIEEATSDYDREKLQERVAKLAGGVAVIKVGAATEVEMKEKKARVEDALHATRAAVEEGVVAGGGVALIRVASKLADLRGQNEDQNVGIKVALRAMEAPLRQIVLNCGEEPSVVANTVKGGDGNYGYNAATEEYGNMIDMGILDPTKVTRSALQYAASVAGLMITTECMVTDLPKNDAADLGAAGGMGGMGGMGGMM

Molecule `COc1ccc(Br)cc1C(=O)Nc1cccc(Cl)c1` [Compound 39, 5-Bromo-N-(3-chlorophenyl)-2-methoxybenzamide] had a CC50 at 48 h in the data set “in vitro” of 93.3 µM. In addition, the IC50 is > 63.1 µM at native MDH (setting [1]), > 63 µM on native MDH (setting [2]) and > 100 µM at E. coli GroEL/ES. For the same molecule, the “log(IC50) GroEL/ES-dMDH Refolding” value at E. coli GroEL/ES (setting [3]) is listed as >2.
Consider `COc1ccccc1C(=O)Nc1ccc(Sc2nc3ccccc3s2)c(Cl)c1` [Compound 32, N-(4-(Benzo[d]thiazol-2-ylthio)-3-chlorophenyl)-2-methoxybenzamide], for which the CC50 at 48 h in the data set “in vitro” was > 100 µM. For the same molecule, the IC50 at native MDH (setting [1]) is > 63.1 µM; at native MDH (setting [2]), > 63 µM; against E. coli GroEL/ES it was > 100 µM.
With `O=C(Nc1ccc(Sc2nc3ccccc3s2)cc1)c1cc(Br)cc(Br)c1` [Compound 20, N-(4-(Benzo[d]thiazol-2-ylthio)phenyl)-3,5-dibromobenzamide], the CC50 at 48 h in “in vitro” was > 100 µM. In addition, the IC50 on native MDH (setting [1]) is > 63.1 µM; on native MDH (setting [2]), > 63 µM; on E. coli GroEL/ES it was > 100 µM.
In the case of `O=C(Nc1ccc(Sc2nc3ccccc3s2)cc1)c1ccccc1` [Compound 22, N-(4-(Benzo[d]thiazol-2-ylthio)phenyl)benzamide], the CC50 at 48 h in “in vitro” was > 100 µM. Also, the IC50 at native MDH (setting [1]) was > 63.1 µM; at native MDH (setting [2]) it was > 63 µM; against E. coli GroEL/ES, > 100 µM.
With `COc1c(Br)cc(Br)cc1C(=O)Nc1ccc(Sc2nc3ccccc3s2)cc1` [Compound 33, N-(4-(Benzo[d]thiazol-2-ylthio)phenyl)-3,5-dibromo-2-methoxybenzamide], the CC50 at 48 h in “in vitro” was > 100 µM. Also, the IC50 at native MDH (setting [1]) was > 63.1 µM; on native MDH (setting [2]) it was > 63 µM; against E. coli GroEL/ES it was > 100 µM.
For the molecule `CN[C@H](CC(C)C)C(=O)N[C@H]1C(=O)N[C@@H](CC(N)=O)C(=O)N[C@H]2C(=O)N[C@H]3C(=O)N[C@H](C(=O)N[C@H](C(=O)O)c4cc(O)cc(O)c4-c4cc3ccc4O)[C@H](O)c3ccc(c(Cl)c3)Oc3cc2cc(c3O[C@@H]2O[C@H](CO)[C@@H](O)[C@H](O)[C@H]2O[C@H]2C[C@](C)(N)[C@H](O)[C@H](C)O2)Oc2ccc(cc2Cl)[C@H]1O` [Vancomycin, vancomycin, reference compound], in “in vitro”, the CC50 at 48 h was > 100 µM. Also, the IC50 is > 63 µM against native MDH (Biochemical Assay IC50 Native MDH Reporter); > 63.1 µM against native MDH (log(IC50) Native MDH Reporter, log of IC50 (μM scale), with standard deviation); > 100 µM at E. coli GroEL/ES. The “log(IC50) GroEL/ES-dMDH Refolding” value on E. coli GroEL/ES (setting [3]) is >2.
Take `COc1ccccc1C(=O)Nc1ccccc1` [Compound 44, 2-Methoxy-N-phenylbenzamide]: the CC50 at 48 h in the data set “in vitro” was > 100 µM. The IC50 was > 63.1 µM on native MDH (setting [1]), > 63 µM at native MDH (setting [2]) and > 100 µM against E. coli GroEL/ES. Moreover, on E. coli GroEL/ES (setting [3]), the “log(IC50) GroEL/ES-dMDH Refolding” value is listed as >2.
Regarding `COc1c(Br)cc(Br)cc1C(=O)Nc1ccc(Sc2nc3ccccc3s2)c(Cl)c1` [Compound 29, N-(4-(Benzo[d]thiazol-2-ylthio)-3-chlorophenyl)-3,5-dibromo-2-methoxybenzamide], in “in vitro”, the CC50 at 48 h was > 100 µM. Also, the results for the IC50 on native MDH (setting [1]), on native MDH (setting [2]) and against E. coli GroEL/ES were > 63.1 µM, > 63 µM and > 100 µM, respectively.
Turning to `Cc1cc(C(C#N)c2ccc(Cl)cc2)c(Cl)cc1NC(=O)c1cc(I)cc(I)c1O` (centres unmarked) [Closantel, closantel, reference compound], the CC50 at 48 h in “in vitro” was 52.5 µM. The “inhibition of native MDH enzymatic activity (in words)” value at native MDH (false-positive counter-screen) was “inhibit native MDH”. For the same molecule, the “log(IC50) Native MDH Reporter” value at native MDH (setting [3]) is 0.79 ± 0.17. Moreover, on E. coli GroEL/ES, the IC50 was 2.24 µM and the “inhibition in the GroEL/ES-mediated refolding assays (in words)” value was “potent GroEUES inhibitors”. Further, at E. coli GroEL/ES (setting [4]), the IC50 worked out at 2.2 µM.
In the case of `COc1c(Br)cccc1C(=O)Nc1ccc(Sc2nc3ccccc3s2)c(Cl)c1` [Compound 30, N-(4-(Benzo[d]thiazol-2-ylthio)-3-chlorophenyl)-3-bromo-2-methoxybenzamide], the CC50 at 48 h in the data set “in vitro” was > 100 µM. Moreover, the IC50 was > 63.1 µM at native MDH (setting [1]), > 63 µM on native MDH (setting [2]) and > 100 µM against E. coli GroEL/ES.
`O=C(Nc1ccc(Oc2ccc(Cl)cc2)c(Cl)c1)c1cc(I)cc(I)c1O` [Rafoxanide, rafoxanide, reference compound] had a CC50 at 48 h in “in vitro” of 24 µM. Also, on native MDH (setting [3]), the “log(IC50) Native MDH Reporter” value is 1.40 ± 0.34. For the same molecule, at E. coli GroEL/ES, the “inhibition in the GroEL/ES-mediated refolding assays (in words)” value is given as “potent GroEUES inhibitors”. Besides, the IC50 is 4.37 µM on E. coli GroEL/ES (log of IC50 (μM scale), with standard deviation, read-out: log(IC50) GroEL/ES-dMDH Refolding (converted)) and 4.3 µM on E. coli GroEL/ES (setting [4]).
Regarding `O=C(Nc1ccccc1)c1cc(Br)cc(Br)c1O` [Compound 13, 3,5-Dibromo-2-hydroxy-N-phenylbenzamide], the CC50 at 48 h in “in vitro” (THLE-3 liver cells) is 25.1 µM. Further, the IC50 at native MDH (setting [1]) was 50.1 µM; at native MDH (setting [2]), 51 µM; on E. coli GroEL/ES (setting [4]), 61 µM. Moreover, the “log(IC50) GroEL/ES-dMDH Refolding” value at E. coli GroEL/ES (setting [3]) is listed as 1.79 ± 0.10.
As to `O=C(Nc1ccc(Sc2nc3ccccc3s2)c(Cl)c1)c1cc(Br)cc(Br)c1` [Compound 17, N-(4-(Benzo[d]thiazol-2-ylthio)-3-chlorophenyl)-3,5-dibromobenzamide], the CC50 at 48 h in “in vitro” is > 100 µM. The IC50 is > 63.1 µM at native MDH (setting [1]), > 63 µM on native MDH (setting [2]) and > 100 µM against E. coli GroEL/ES.
Turning to `COc1ccccc1C(=O)Nc1cccc(Cl)c1` [Compound 40, N-(3-Chlorophenyl)-2-methoxybenzamide], in the data set “in vitro”, the CC50 at 48 h was > 100 µM. Also, the results for the IC50 on native MDH (setting [1]), on native MDH (setting [2]) and on E. coli GroEL/ES were > 63.1 µM, > 63 µM and > 100 µM, respectively. The “log(IC50) GroEL/ES-dMDH Refolding” value on E. coli GroEL/ES (setting [3]) was >2.
Turning to `CC1(C)S[C@@H]2[C@H](NC(=O)[C@H](N)c3ccccc3)C(=O)N2[C@H]1C(=O)O` [Ampicillin, ampicillin, reference compound], the CC50 at 48 h in “in vitro” (THLE-3 liver cells) was > 100 µM. The IC50 was > 63.1 µM on native MDH (setting [1]), > 63 µM on native MDH (setting [2]) and > 100 µM at E. coli GroEL/ES (setting [4]). Besides, the “log(IC50) GroEL/ES-dMDH Refolding” value at E. coli GroEL/ES (setting [3]) is on record as >2.
In “in vitro”, `O=C(Nc1cccc(Cl)c1)c1cccc(Br)c1` [Compound 24, 3-Bromo-N-(3-chlorophenyl)benzamide] had a CC50 at 48 h of 50.1 µM. Besides, the IC50 at native MDH (setting [1]) is > 63.1 µM; on native MDH (setting [2]) it was > 63 µM; against E. coli GroEL/ES, > 100 µM. Besides, the “log(IC50) GroEL/ES-dMDH Refolding” value on E. coli GroEL/ES (setting [3]) was >2.
